pEC50, pIC50, pKd: −log10 of the molar value.
Columns and labels:
[1] = Cytotoxicity against human CRL8155 cells; assay type: cell-based
[2] = Inhibition of recombinant Trypanosoma cruzi sterol 14-alpha-demethylase by spectrophotometry
physchem = details: octanol/water
Description: Lipophilicity, log P of the compound

Trypanosoma cruzi = assay: microbe, parasite or virus in culture; details: Tulahuen, NIH3T3, 168 h
Description: Antitrypanosomal activity against Trypanosoma cruzi Tulahuen infected in 3T3 cells after 7 days by beta-galactosidase assay

SMILES: COc1ccc(NCc2cncn2Cc2ccc(-c3ccccc3)cc2N)nc1-c1ccccc1
- pIC50 [1]: < 5.30
- pKd [2]: 6.31
- logP (physchem): 5
- pEC50 (Trypanosoma cruzi): 9.70

Reference: ChEMBL document CHEMBL2439965, “Dialkylimidazole inhibitors of Trypanosoma cruzi sterol 14α-demethylase as anti-Chagas disease agents” (Bioorg Med Chem Lett, 2013)
